Assay results: patent US20230364070A1, “PYRROLO[3,2-C]PYRIDIN-4-ONE DERIVATIVES USEFUL IN THE TREATMENT OF CANCER” (Scorpion Therapeutics, Inc., priority 2020, published 2023)
pIC50: −log10 of the molar value.

How the values were obtained:
[1] = target: T1, Ba/F3 cells with EGFR exon 20 ASV Ins V769_D770 (Homo sapiens, UniProt P00533, INS769ASV); assay: EGFR activity: Ba/F3 cell viability (CellTiter-Glo, 72 h), EGFR exon 20 ASV insertion; format: cell-based; conditions: EGFR exon 20 ASV Ins V769_D770, cell viability, read-out: BaF3 ASV IC50
T1 construct: expressed in transfected cells; host or cells: Ba/F3 (murine pro-B cells), retroviral transduction, puromycin selection, IL3-independent pool

[2] = target: T2, Ba/F3 cells with EGFR WT (Homo sapiens, UniProt P00533); assay: EGFR activity: Ba/F3 cell viability (CellTiter-Glo, 72 h), EGFR WT; format: cell-based; conditions: read-out: BaF3 WT IC50
T2 construct: expressed in transfected cells; host or cells: Ba/F3 (murine pro-B cells), retroviral transduction, puromycin selection, maintained with EGF
T2 sequence (P00533 25-1210): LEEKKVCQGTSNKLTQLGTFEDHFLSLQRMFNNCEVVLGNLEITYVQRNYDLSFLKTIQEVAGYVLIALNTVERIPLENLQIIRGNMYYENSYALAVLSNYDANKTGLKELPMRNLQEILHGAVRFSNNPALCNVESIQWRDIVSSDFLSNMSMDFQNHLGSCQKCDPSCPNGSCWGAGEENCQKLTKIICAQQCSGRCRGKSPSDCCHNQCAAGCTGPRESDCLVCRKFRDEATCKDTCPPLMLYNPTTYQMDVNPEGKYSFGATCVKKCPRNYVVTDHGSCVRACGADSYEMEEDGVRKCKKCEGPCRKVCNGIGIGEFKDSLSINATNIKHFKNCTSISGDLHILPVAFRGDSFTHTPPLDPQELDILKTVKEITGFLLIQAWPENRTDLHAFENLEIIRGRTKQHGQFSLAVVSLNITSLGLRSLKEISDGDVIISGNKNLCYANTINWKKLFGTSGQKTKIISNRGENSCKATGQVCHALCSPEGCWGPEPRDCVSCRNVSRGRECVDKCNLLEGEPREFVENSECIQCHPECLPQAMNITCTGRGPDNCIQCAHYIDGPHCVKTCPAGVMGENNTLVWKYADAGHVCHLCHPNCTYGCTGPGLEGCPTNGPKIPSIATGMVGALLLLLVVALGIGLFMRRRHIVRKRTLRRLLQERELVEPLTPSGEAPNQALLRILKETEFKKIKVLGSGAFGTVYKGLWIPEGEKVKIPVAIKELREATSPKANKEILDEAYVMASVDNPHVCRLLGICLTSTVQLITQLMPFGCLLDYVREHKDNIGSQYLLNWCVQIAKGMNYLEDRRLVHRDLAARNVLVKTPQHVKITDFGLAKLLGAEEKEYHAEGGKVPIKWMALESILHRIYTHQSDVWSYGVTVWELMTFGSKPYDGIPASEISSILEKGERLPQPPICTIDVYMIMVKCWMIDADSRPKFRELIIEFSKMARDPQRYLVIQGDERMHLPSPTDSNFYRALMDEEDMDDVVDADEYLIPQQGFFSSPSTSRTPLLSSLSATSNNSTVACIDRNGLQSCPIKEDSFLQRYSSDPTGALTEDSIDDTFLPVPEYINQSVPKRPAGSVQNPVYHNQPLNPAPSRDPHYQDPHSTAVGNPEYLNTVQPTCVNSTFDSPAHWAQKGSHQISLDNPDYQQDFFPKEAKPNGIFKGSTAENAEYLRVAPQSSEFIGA

T1 sequence (P00533 with tags, fused parts or gaps INS769ASV): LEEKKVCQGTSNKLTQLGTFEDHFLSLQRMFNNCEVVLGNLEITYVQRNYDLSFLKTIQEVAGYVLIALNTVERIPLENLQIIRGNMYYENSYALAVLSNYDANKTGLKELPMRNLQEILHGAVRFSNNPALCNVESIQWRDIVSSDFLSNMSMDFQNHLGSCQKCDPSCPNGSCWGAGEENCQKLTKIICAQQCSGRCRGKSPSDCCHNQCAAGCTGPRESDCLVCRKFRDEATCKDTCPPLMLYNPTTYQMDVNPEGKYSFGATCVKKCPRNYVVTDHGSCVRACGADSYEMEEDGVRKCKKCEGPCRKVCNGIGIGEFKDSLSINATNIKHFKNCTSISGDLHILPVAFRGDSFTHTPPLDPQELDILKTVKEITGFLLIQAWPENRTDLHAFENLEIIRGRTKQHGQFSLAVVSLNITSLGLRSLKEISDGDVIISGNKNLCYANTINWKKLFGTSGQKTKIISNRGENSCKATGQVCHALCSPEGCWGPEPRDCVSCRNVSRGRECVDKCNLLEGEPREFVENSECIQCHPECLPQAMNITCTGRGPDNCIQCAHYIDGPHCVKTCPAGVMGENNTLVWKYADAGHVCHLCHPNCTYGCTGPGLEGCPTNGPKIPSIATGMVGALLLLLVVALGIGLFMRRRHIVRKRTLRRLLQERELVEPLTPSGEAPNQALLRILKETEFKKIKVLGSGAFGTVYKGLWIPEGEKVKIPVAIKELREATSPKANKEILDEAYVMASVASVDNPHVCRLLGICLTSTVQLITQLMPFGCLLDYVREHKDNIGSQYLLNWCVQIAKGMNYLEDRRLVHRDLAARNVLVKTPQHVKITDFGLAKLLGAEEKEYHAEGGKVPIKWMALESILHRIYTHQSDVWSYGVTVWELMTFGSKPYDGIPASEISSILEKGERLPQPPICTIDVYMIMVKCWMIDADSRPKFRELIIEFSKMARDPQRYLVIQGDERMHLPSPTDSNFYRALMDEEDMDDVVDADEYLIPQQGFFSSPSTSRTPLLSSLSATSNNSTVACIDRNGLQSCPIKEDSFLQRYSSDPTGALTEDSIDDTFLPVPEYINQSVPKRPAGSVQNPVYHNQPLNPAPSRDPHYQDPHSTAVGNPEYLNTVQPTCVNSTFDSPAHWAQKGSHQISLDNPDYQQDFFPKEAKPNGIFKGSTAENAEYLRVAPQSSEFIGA

Row | SMILES | pIC50 [1] | pIC50 [2]
1 | COc1c(F)cccc1Nc1c(-c2ccncc2C#C[C@@H]2CCCO2)[nH]c2c1C(=O)NCC2 (single isomer, unassigned) [Compound 148a] | 6.00 to 7.00 | < 6.00
2 | COc1c(F)cccc1Nc1c(-c2ccncc2C#CC2CCCO2)[nH]c2c1C(=O)NCC2 (single isomer, unassigned) [Compound 148b] | 6.00 to 7.00 | < 6.00
3 | COc1c(F)cccc1Nc1c(-c2ccncc2C#C[C@H]2CCC[C@H]2OC)[nH]c2c1C(=O)NCC2 [compound 485] | > 7.00 | 6.00 to 7.00
4 | COc1c(F)cccc1Nc1c(-c2ccncc2C#C[C@@H]2CCC[C@@H]2OC)[nH]c2c1C(=O)NCC2 [compound 486] | 6.00 to 7.00 | < 6.00
5 | COc1c(Cl)cccc1Nc1c(-c2ccncc2C#CC2(OC)COC2)[nH]c2c1C(=O)NCC2 [compound 491] | > 7.00 | 6.00 to 7.00
6 | COc1ccccc1C#Cc1cnccc1-c1[nH]c2c(c1Nc1cccc(Cl)c1OC)C(=O)NCC2 [compound 497] | > 7.00 | 6.00 to 7.00
7 | Cc1c(F)cccc1Nc1c(-c2ccncc2C#CC2CC2)[nH]c2c1C(=O)NCC2 [compound 498] | 6.00 to 7.00 | < 6.00
8 | COCC#Cc1cnccc1-c1[nH]c2c(c1Nc1cccc(F)c1C)C(=O)NCC2 [compound 500] | 6.00 to 7.00 | < 6.00
9 | COc1ccccc1C#Cc1cnccc1-c1[nH]c2c(c1Nc1cccc(F)c1C)C(=O)NCC2 [compound 501] | > 7.00 | 6.00 to 7.00
10 | COc1ccc(C#Cc2cnccc2-c2[nH]c3c(c2Nc2cccc(F)c2C)C(=O)NCC3)cn1 [compound 502] | 6.00 to 7.00 | < 6.00
11 | COc1cccnc1C#Cc1cnccc1-c1[nH]c2c(c1Nc1cccc(F)c1C)C(=O)NCC2 [compound 503] | 6.00 to 7.00 | 6.00 to 7.00
12 | Cc1c(F)cccc1Nc1c(-c2ccncc2C#CC2CCOCC2)[nH]c2c1C(=O)NCC2 [compound 504] | 6.00 to 7.00 | < 6.00
13 | Cc1c(F)cccc1Nc1c(-c2ccncc2C#CCN2CCOCC2)[nH]c2c1C(=O)NCC2 [compound 505] | < 6.00 | < 6.00
14 | Cc1c(F)cccc1Nc1c(-c2ccncc2C#Cc2cnn(C)c2)[nH]c2c1C(=O)NCC2 [compound 506] | 6.00 to 7.00 | < 6.00
15 | Cc1c(F)cccc1Nc1c(-c2ccncc2C#CC2(C)COC2)[nH]c2c1C(=O)NCC2 [compound 507] | 6.00 to 7.00 | < 6.00
16 | Cc1c(F)cccc1Nc1c(-c2ccncc2C#CC2CCOC2)[nH]c2c1C(=O)NCC2 (centres unmarked) [compound 508] | 6.00 to 7.00 | < 6.00
17 | Cc1c(F)cccc1Nc1c(-c2ccncc2C#CC2COC2)[nH]c2c1C(=O)NCC2 [compound 509] | 6.00 to 7.00 | < 6.00
18 | C=CC(=O)N1CC(F)(F)C[C@H]1C#Cc1cnccc1-c1[nH]c2c(c1Nc1cccc(Cl)c1OC)C(=O)NCC2 [compound 520] | > 7.00 | > 7.00
19 | COC(C)C#Cc1cnccc1-c1[nH]c2c(c1Nc1cccc(F)c1C)C(=O)NCC2 (centres unmarked) [compound 524] | 6.00 to 7.00 | < 6.00
20 | COc1c(Cl)cccc1Nc1c(-c2ccncc2C#CC2CCC2)[nH]c2c1C(=O)NCC2 [compound 525] | > 7.00 | < 6.00
21 | C=CC(=O)N1CCC1C#Cc1cnccc1-c1[nH]c2c(c1Nc1cccc(F)c1OC)C(=O)NCC2 (centres unmarked) [compound 544] | > 7.00 | > 7.00
22 | COc1c(Cl)cccc1Nc1c(-c2ccncc2C#CC2CC(F)(F)C2)[nH]c2c1C(=O)NCC2 [compound 548] | 6.00 to 7.00 | < 6.00
